Where two headings read alike, the source gives them in different places.
Test system: Lox-IMVI melanoma cell line
Assay: Lox-IMVI anti-proliferative assay (growth inhibition, Cell Titer-Glo)
Assay type: cell-based, human
Details: Homo sapiens
Summary of the method: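 Viability read by ATP luminescence (Cell Titer-Glo) at t0 and after 72 h at 37 °C, 5% CO2, with normalisation to DMSO-treated cells. Compound tested at 0.5 nM–10 μM in 3-fold, 10-point series (0.2% DMSO final) on Lox-IMVI in RPMI+10% FBS; IC50 by 4-parameter sigmoidal fit.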

[1] = IC50 activity level in the cell-based Lox-IMVI anti-proliferative assay, read-out: Activity
[2] = Lox-IMVI anti-proliferative assay, IC50 activity level, read-out: Activity
[3] = Lox-IMVI melanoma cell line, anti-proliferative assay, read-out: Activity (IC50 activity level)

Row | IC50 [1] | Compound | also measured
1 | > 1 µM | NC(=O)[C@H]1CC[C@@H](n2c(Nc3c(F)cc(F)cc3F)nc3cnc(N[C@@H]4CC[C@H](O)C4)nc32)CC1 [Example 332, (1S,4s)-4-(2-((1R,3S)-3-hydroxycyclopentylamino)-8-(2,4,6-trifluorophenylamino)-9H-purin-9-yl)cyclohexanecarboxamide] | –
2 | > 1 µM | C[C@@H]1CC[C@@H](Nc2ncc3nc(Nc4c(F)ccc(Cl)c4F)n([C@H]4CC[C@@H](C(N)=O)CC4)c3n2)C[C@H]1O [Example 358, (1S,4s)-4-(8-(3-chloro-2,6-difluorophenylamino)-2-((1R,3R,4R)-3-hydroxy-4-methylcyclohexylamino)-9H-purin-9-yl)cyclohexanecarboxamide] | –
3 | 0.25 to 0.5 µM | NC(=O)[C@H]1CC[C@@H](n2c(Nc3c(Cl)cc(Cl)cc3Cl)nc3cnc(N[C@@H]4CCOC4)nc32)CC1 [Example 76, (1S,4s)-4-(2-((R)-tetrahydrofuran-3-ylamino)-8-(2,4,6-trichlorophenylamino)-9H-purin-9-yl)cyclohexanecarboxamide] | –
4 | > 1 µM | NC(=O)[C@H]1CC[C@@H](n2c(Nc3c(F)cccc3Cl)nc3cnc(NC4CCN(c5ccccc5)CC4)nc32)CC1 [Example 108, (1s,4s)-4-(8-(2-chloro-6-fluorophenylamino)-2-(1-phenylpiperidin-4-ylamino)-9H-purin-9-yl)cyclohexanecarboxamide] | –
5 | 0.5 to 1 µM | NC(=O)[C@H]1CC[C@@H](n2c(Nc3c(Cl)cc(F)cc3Cl)nc3cnc(N[C@@H]4CCC[C@H](O)C4)nc32)CC1 [Example 354, (1S,4s)-4-(8-(2,6-dichloro-4-fluorophenylamino)-2-((1R,3S)-3-hydroxycyclohexylamino)-9H-purin-9-yl)cyclohexanecarboxamide] | –
6 | – | NC(=O)[C@H]1CC[C@@H](n2c(Nc3c(F)cc(F)cc3Cl)nc3cnc(N[C@H]4CCC(F)(F)C4)nc32)CC1 [Example 589, (1R,4s)-4-(8-(2-chloro-4,6-difluorophenylamino)-2-((S)-3,3-difluorocyclopentylamino)-9H-purin-9-yl)cyclohexanecarboxamide] | IC50 [2]: 0.25 to 0.5 µM
7 | – | NC(=O)[C@H]1CC[C@@H](n2c(Nc3c(F)cc(Cl)cc3Cl)nc3cnc(N[C@H]4CCOC[C@H]4F)nc32)CC1 [Example 714, (1R,4s)-4-(8-(2,4-dichloro-6-fluorophenylamino)-2-((3S,4S)-3-fluorotetrahydro-2H-pyran-4-ylamino)-9H-purin-9-yl)cyclohexanecarboxamide] | IC50 [3]: < 0.25 µM
8 | > 1 µM | Cc1cccc(Nc2nc3cnc(NC4CCOCC4)nc3n2[C@H]2CC[C@@H](C(N)=O)CC2)c1Cl [Example 69, (1s,4s)-4-(8-(2-chloro-3-methylphenylamino)-2-(tetrahydro-2H-pyran-4-ylamino)-9H-purin-9-yl)cyclohexanecarboxamide] | –
9 | – | C[C@]1(C(N)=O)CC[C@@H](n2c(Nc3c(Cl)cc(OC(F)(F)F)cc3Cl)nc3cnc(NC4CCC4)nc32)CC1 [Example 598, (1s,4s)-4-(2-(cyclobutylamino)-8-(2,6-dichloro-4-(trifluoromethoxy)phenylamino)-9H-purin-9-yl)-1-methylcyclohexanecarboxamide] | IC50 [2]: > 1 µM
10 | – | C[C@]1(C(N)=O)CC[C@@H](n2c(Nc3c(Cl)cc(Cl)cc3Cl)nc3cnc(N[C@@H]4CC[C@@H](O)C4)nc32)CC1 [Example 636, (1S,4s)-4-(2-((1R,3R)-3-hydroxycyclopentylamino)-8-(2,4,6-trichlorophenylamino)-9H-purin-9-yl)-1-methylcyclohexanecarboxamide] | IC50 [3]: < 0.25 µM
11 | – | C[C@]1(C(N)=O)CC[C@H](n2c(Nc3c(Cl)cc(C#N)cc3Cl)nc3cnc(NC4CCCC4)nc32)CC1 [Example 485, (1r,4r)-4-(2-(cyclopentylamino)-8-(2,6-dichloro-4-cyanophenylamino)-9H-purin-9-yl)-1-methylcyclohexanecarboxamide] | IC50 [2]: 0.5 to 1 µM
12 | > 1 µM | NC(=O)[C@H]1CC[C@@H](n2c(Nc3c(Cl)cc(Cl)cc3Cl)nc3cnc(NCC(F)(F)F)nc32)CC1 [Example 109, (1s,4s)-4-(8-(2,4,6-trichlorophenylamino)-2-(2,2,2-trifluoroethylamino)-9H-purin-9-yl)cyclohexanecarboxamide] | –
